Patent US20100183629A1, “ANTAGONISTS OF ENDOTHELIAL DIFFERENTIATION GENE SUBFAMILY 3 (EDG-3, S1P3) RECEPTORS FOR PREVENTION AND TREATMENT OF OCULAR DISORDERS” (ALCON RESEARCH, LTD., priority 2006, published 2010)

Target: T1, Edg3 receptor (Homo sapiens, UniProt Q99500)
T1 construct: endogenous in cells; host or cells: cultured human trabecular meshwork (TM) cells
Test: PAI-1 levels (ELISA) in supernatants of treated human TM cell cultures, Edg3 receptor antagonism
Assay type: cell-based
Details: human trabecular meshwork cell cultures, 24 hours
Description: FIG. 2A and FIG. 2B. Human trabecular meshwork cell cultures were treated with (open circles) or without (closed circles) the Edg3 receptor subtype antagonist CAY10444 in the presence of various amounts of the endogenous Edg receptor agonist S1P (FIG. 2A) or in the presence of various amounts of FTY720, a structural analog of SIP (FIG. 2B). Twenty-four hours later, the levels of the secreted PAI-1 protein were then determined by ELISA of supernatant aliquots from the treated cultures as cited in Example 2.
The effect of Edg3 receptor antagonism on expression of extracellular matrix-related proteins by cultured human trabecular meshwork cells is determined as follows. […] Levels of extracellular matrix-related proteins, such as fibronectin, plasminogen activator inhibitor I (PAI-1), collagens, fibrillin, vitronectin, laminin, thrombospondin I, proteoglycans, or integrins, are then measured in each cell culture group via standard enzyme-linked immunoabsorbent assays (ELISA). […]
An example of the effect of Edg3 receptor antagonism on PAI-1 levels in supernatants from treated human TM cell cultures is shown in FIG. 2A and FIG. 2B. […] Twenty-four hours later, the levels of the secreted PAI-1 protein were then determined by ELISA of supernatant aliquots from the treated cultures.

T1 sequence (Q99500 whole entry): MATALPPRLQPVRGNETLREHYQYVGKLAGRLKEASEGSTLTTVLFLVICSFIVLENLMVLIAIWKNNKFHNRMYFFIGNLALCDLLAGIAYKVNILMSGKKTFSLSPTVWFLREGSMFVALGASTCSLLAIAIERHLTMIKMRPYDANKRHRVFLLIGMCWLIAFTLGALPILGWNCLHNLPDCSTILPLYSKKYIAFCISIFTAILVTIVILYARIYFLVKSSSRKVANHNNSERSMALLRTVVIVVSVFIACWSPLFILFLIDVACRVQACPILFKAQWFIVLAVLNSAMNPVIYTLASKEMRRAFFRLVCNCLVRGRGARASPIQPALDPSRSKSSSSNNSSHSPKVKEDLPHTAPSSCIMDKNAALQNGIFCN

For `CCCCCCCCCCCC1N[C@H](C(=O)O)CS1` (some centres unmarked) [CAY10444], the “antagonism of FTY720 effect on secreted PAI-1 protein level” value (various amounts of FTY720, ELISA of supernatant (FIG. 2B)) was “potently and efficaciously antagonized” and the “antagonism of S1P effect on secreted PAI-1 protein level” value (various amounts of S1P, ELISA of supernatant (FIG. 2A)) was “potently and efficaciously antagonized”.
